# Laboratory results: patent US6153419A, “Method for quantitative determination of 1,5-anhydroglucitol” (Kyowa Hakko Kogyo Co., Ltd., priority 1996, dated 2000)
# Read-outs that look alike come from different tables or passages of the source.
# Assays:
# Assay type in all cases: biochemical
# [1] = test system: trehalase derived from Rhodococcus globerulus ATCC 14898; assay: Test Example 1: specificity of inhibition by 1,5-anhydroglucitol; conditions: for Inhibition (%): test sugar 1 mM, 100 mM phosphate buffer pH 7.0, 10 mg/ml trehalose, 10 minutes
# Description: (§1) A reaction mixture was prepared by adding 10 mU/ml trehalase prepared in Reference Example 3, 0.81 mg/ml 4-aminoantipyrine, 1 mg/ml EMSE, 30 U/ml glucose oxidase, 10 U/ml peroxidase, and 1 mM test sugar shown in Table 4 to 100 mM phosphate buffer (pH 7.0). After addition of 10 mg/ml trehalose to the reaction mixture and stirring, the change in absorbance at 550 nm was measured with a spectrophotometer.
# [2] = test system: trehalose phosphorylase derived from Catellatospora ferruginea FERM BP-4329; assay: Example 1: inhibition of the decomposition activity of trehalose phosphorylase; conditions: pH 7.0, FIG. 5
# Description: A reaction mixture was prepared by adding 10 mU/ml trehalose phosphorylase derived from Catellatospora ferruginea prepared in Reference Example 1, 2.5 U/ml […] (Beckman Instruments, Inc.), 5 U/ml glucose-6-phosphate dehydrogenase (Sigma Chemical Co.), 10 mM NADP, and a sample containing 1,5-anhydroglucitol at a varied concentration to 100 mM phosphate buffer (pH 7.0). After addition of 10 mg/ml trehalose to the reaction mixture and stirring, the increase in absorbance at 340 nm was measured with a spectrophotometer.
# [3] = test system: trehalase derived from Streptomyces aureofaciens ATCC 10762; assay: Example 3: inhibition of trehalase, calibration curve; conditions: pH 7.0, FIG. 7
# Description: as §1, with “2,” for “3,”, “a sample containing 1,5-anhydroglucitol at a varied concentration” for “1 mM test sugar shown in Table 4”, “increase” for “change”
# [4] = test system: trehalose phosphorylase derived from Catellatospora ferruginea FERM BP-4329; assay: Example 2: inhibition of the synthesis activity of trehalose phosphorylase; conditions: imidazole buffer pH 7.0, FIG. 6
# Description: A reaction mixture (3 ml) was prepared by adding 10 mU/ml trehalose phosphorylase prepared in Reference Example 1, 50 mM glucose, 2 ml of a kit for the determination of inorganic phosphorus (Kyowa Medex Co., Ltd.), and a sample containing 1,5-anhydroglucitol at a varied concentration to 50 mM imidazole buffer (pH 7.0). After addition of 50 mM β-glucose-1-phosphate to the reaction mixture and stirring, the increase in absorbance at 550 nm was measured with a spectrophotometer.
# [5] = test system: trehalase derived from Nocardia sp. NK-2067; assay: Example 6: inhibition of trehalase, calibration curve; conditions: pH 7.0, FIG. 9
# Description: as §1, with “2,” for “3,”, “a sample containing 1,5-anhydroglucitol at a varied concentration” for “1 mM test sugar shown in Table 4”, “increase” for “change”
# The same procedure as in Example 3 was repeated, except that trehalase derived from Nocardia sp. prepared in Example 5 was used.
# [6] = test system: trehalase derived from Nocardia sp. NK-2067; assay: Inhibition specificity of the novel trehalase to various sugars, trehalose as substrate; conditions: sugar at 1.75 mM
# Description: The enzyme was also examined for inhibition specificity to various sugars at 1.75 mM using trehalose as a substrate.
# (§2) Trehalose is dissolved in 100 mM phosphate buffer (pH 5.5) to give a concentration of 12.5 mM.
# (§3) Glucose oxidase (Toyobo Co., Ltd., Grade II), peroxidase (Toyobo Co., Ltd., Grade III), 4-aminoantipyrine and phenol are dissolved in water to give final concentrations of 0.04 mg/ml, 0.04 mg/ml, 1.2 mM and 21 mM, respectively.
# (§4) To 1 ml of the substrate solution is added 0.02 ml of an enzyme solution, and reaction is carried out at 37° C. for 30 minutes. The reaction is stopped by heating at 100° C. for 3 minutes. To the reaction mixture is added 1 ml of the color-producing reagent, and reaction is carried out at 37° C. for 20 minutes, followed by measurement of the absorbance at 500 nm. A control solution is prepared by using water instead of the enzyme solution in the above procedure.
# (§5) The trehalase activity is expressed by unit, one unit being defined as that amount of the enzyme which will hydrolyze 1 μmol of trehalose at 37° C. in one minute. The activity per milliliter of enzyme solution (U/ml) can be calculated from the net difference in absorbance (enzyme solution-control solution) according to the following equation. [formula]
# [7] = test system: trehalase derived from Rhodococcus globerulus ATCC 14898; assay: Example 4: inhibition of trehalase, calibration curve; conditions: pH 7.0, FIG. 8
# Description: as §1, with “2,” for “3,”, “a sample containing 1,5-anhydroglucitol at a varied concentration” for “1 mM test sugar shown in Table 4”, “increase” for “change”
# The same procedure as in Example 3 was repeated, except that trehalase derived from Rhodococcus globerulus prepared in Reference Example 3 was used.
# [8] = molecular target: trehalase derived from Nocardia sp. NK-2067; assay: Substrate and inhibitor affinity by Lineweaver-Burk plot; conditions: pH 5.5, Lineweaver-Burk plot
# Description: The Km value of the enzyme for trehalose at pH 5.5 as determined by Lineweaver-Burk plot [J. Am. Chem. Soc., 56, 658 (1934)] is 6.7 mM.
# [9] = test system: trehalase derived from Nocardia sp. NK-2067; assay: Effect of metal chelating agents, enzyme inhibitors and metal ions on the novel trehalase
# Description: The effect of various metal chelating agents, enzyme inhibitors and metal ions on the enzyme was investigated at a concentration of 1 mM.
# as §4
# [10] = test system: trehalase derived from Nocardia sp. NK-2067; assay: Substrate specificity of the novel trehalase (activity on various substrates); conditions: for Relative activity (%): substrate 1.75 mM, 100 mM phosphate buffer pH 5.5, activity on trehalose defined as 100
# Description: The activity of the enzyme on various substrates was measured at a substrate concentration of 1.75 mM in 100 mM phosphate buffer (pH 5.5). The results are shown in Table 1 as relative activities, the activity on trehalose being defined as 100.
# The enzyme activity is measured in the following manner.
# as §2, §3, §4, §5
smiles,measurement,setting,value
"OC[C@H]1OC[C@H](O)[C@@H](O)[C@@H]1O [1,5-Anhydroglucitol]",Specificity of inhibition in words,[1]; conclusion from Table 4,inhibited specifically
same,Inhibition (%),[1],45.0%
same,Relationship between inhibition rate and concentration,[2],good linear relationship
same,Relationship between inhibition rate and concentration,[3],good linear relationship
same,Relationship between inhibition rate and concentration,[4],good linear relationship
same,Relationship between inhibition rate and concentration,[5],good linear relationship
same,Inhibition (%),[6],80.7%
same,Relationship between inhibition rate and concentration,[7],good linear relationship
same,Ki,[8]; read-out: Ki value of the enzyme,330 µM
"c1cnc2c(c1)ccc1cccnc12 [1,10-Phenanthroline]",Inhibition (%),[9]; compound at 1 mM,88.5%
same,Inhibition of the enzyme in words,[9]; summary of Table 3,inhibited
"c1ccc(-c2ccccn2)nc1 [2,2'-Bipyridyl]",Inhibition (%),[9]; compound at 1 mM,60.0%
same,Inhibition of the enzyme in words,[9]; summary of Table 3,inhibited
[Ba+2].[Cl-].[Cl-] [BaCl2],Inhibition (%),[9]; compound at 1 mM,40.7%
[Cl-].[Cl-].[Co+2] [CoCl2],Inhibition (%),[9]; compound at 1 mM,20.4%
O=C(CO)[C@@H](O)[C@H](O)[C@H](O)CO [D-Fructose],Inhibition (%),[1],0%
C[C@H]1OC(O)[C@H](O)[C@@H](O)[C@H]1O (stereo partly drawn) [D-Fucose],Inhibition (%),[1],0%
OC[C@H]1OC(O)[C@H](O)[C@@H](O)[C@H]1O (stereo partly drawn) [D-Galactose],Inhibition (%),[1],0.2%
N[C@H]1C(O)O[C@H](CO)[C@@H](O)[C@@H]1O (stereo partly drawn) [D-Glucosamine],Inhibition (%),[1],0%
OC[C@H]1OC(O)[C@@H](O)[C@@H](O)[C@@H]1O (stereo partly drawn) [D-Mannose],Inhibition (%),[1],0.5%
OC1OC[C@@H](O)[C@H](O)[C@H]1O (stereo partly drawn) [D-Xylose],Inhibition (%),[1],0%
CCN(CC)C(=S)S [Diethyldithiocarbamic acid],Inhibition (%),[9]; compound at 1 mM,51.0%
"O=C(O)CN(CCN(CC(=O)O)CC(=O)O)CC(=O)O [EDTA, ethylenediaminetetraacetic acid]",Inhibition (%),[9],67.6%
same,Inhibition of the enzyme in words,[9],inhibited
NO [Hydroxylamine],Inhibition (%),[9]; compound at 1 mM,81.2%
same,Inhibition of the enzyme in words,[9]; summary of Table 3,inhibited
NC(=O)CI [Iodoacetamide],Inhibition (%),[9]; compound at 1 mM,83.6%
same,Inhibition of the enzyme in words,[9]; summary of Table 3,inhibited
OC[C@H]1O[C@H](O[C@H]2C(O)O[C@H](CO)[C@@H](O)[C@@H]2O)[C@H](O)[C@@H](O)[C@@H]1O (stereo partly drawn) [Kojibiose],Relative activity (%),[10],0%
same,Inhibition (%),[6],0%
C[C@@H]1OC(O)[C@@H](O)[C@H](O)[C@@H]1O (stereo partly drawn) [L-Fucose],Inhibition (%),[1],0%
OC[C@H]1O[C@@H](O[C@H]2[C@H](O)[C@@H](O)C(O)O[C@@H]2CO)[C@H](O)[C@@H](O)[C@H]1O (stereo partly drawn) [Lactose],Relative activity (%),[10],0%
same,Inhibition (%),[6],0%
OC[C@H]1O[C@H](O[C@H]2[C@H](O)[C@@H](O)[C@H](O)O[C@@H]2CO)[C@H](O)[C@@H](O)[C@@H]1O [Maltose],Inhibition (%),[1],0%
same,Relative activity (%),[10],0%
same,Inhibition (%),[6],0%
CC(=O)N[C@H]1C(O)O[C@H](CO)[C@@H](O)[C@@H]1O (stereo partly drawn) [N-Acetyl-D-glucosamine],Inhibition (%),[1],0%
O=C1CCC(=O)N1Br [N-Bromosuccinimide],Inhibition (%),[9]; compound at 1 mM,23.4%
CCN1C(=O)C=CC1=O [N-Ethylmaleimide],Inhibition (%),[9]; compound at 1 mM,21.9%
"O=S(=O)([O-])[O-].[Ni+2] [NiSO4, nickel sulfate]",Inhibition (%),[9],62.1%
same,Inhibition of the enzyme in words,[9],inhibited
OC[C@H]1O[C@H](O[C@H]2[C@H](O)[C@@H](CO)OC(O)[C@@H]2O)[C@H](O)[C@@H](O)[C@@H]1O (stereo partly drawn) [Nigerose],Relative activity (%),[10],0%
same,Inhibition (%),[6],0%
[N-]=[N+]=[N-] [Sodium azide],Inhibition (%),[9]; compound at 1 mM,22.8%
OC[C@H]1O[C@@](CO)(O[C@H]2O[C@H](CO)[C@@H](O)[C@H](O)[C@H]2O)[C@@H](O)[C@@H]1O [Sucrose],Inhibition (%),[1],0%
same,Relative activity (%),[10],0%
same,Inhibition (%),[6],0%
N[C@H]1[C@@H](O[C@H]2O[C@H](CO)[C@@H](O)[C@H](O)[C@H]2O)O[C@H](CO)[C@@H](O)[C@@H]1O [Trehalosamine],Relative activity (%),[10],0.5%
OC[C@H]1O[C@H](O[C@H]2O[C@H](CO)[C@@H](O)[C@H](O)[C@H]2O)[C@H](O)[C@@H](O)[C@@H]1O [Trehalose],Substrate specificity in words,[10]; conclusion from Table 1,specifically acts on
same,Relative activity (%),[10],100%
same,Km,[8]; read-out: Km value of the enzyme,6.7 mM
O=S(=O)([O-])[O-].[Zn+2] [ZnSO4],Inhibition (%),[9]; compound at 1 mM,53.4%
O=C(O)c1cc[c]([Hg][OH])cc1 [p-Mercuribenzoic acid],Inhibition (%),[9]; compound at 1 mM,94.7%
same,Inhibition of the enzyme in words,[9]; summary of Table 3,inhibited
